This note sets out measurements from PubChem BioAssay (NCI).

Among the test systems are SN12C renal; DMS 273 small cell lung; HCC-2998 colon; SF-539 CNS; UACC-257 melanoma; OVCAR-8 ovarian; HCT-116 colon; NCI-H226 lung; HT29 colon; SF-268 CNS; HOP-62 NSCLC; SK-MEL-2 melanoma.
Common to all, as to experiment: NCI anticancer screen, dose series, 48 h

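Protocol summary: plate cells (96-well), add compound at 5 concentrations, incubate 48 h, interpolate endpoints linearly. The concentration for 50% growth inhibition is given as GI50. TGI marks complete inhibition of growth.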

Consider `c1coc(CNc2ncnc3[nH]ncc23)c1`, for which the TGI in the test with SN12C renal, in the test with DMS 273 small cell lung, with HCC-2998 colon, in the test on SF-539 CNS, in the test with UACC-257 melanoma and in the test on OVCAR-8 ovarian was greater than 100 µM each time. Further, the TGI with HCT-116 colon, in the test on NCI-H226 lung, in the test on HT29 colon, with SF-268 CNS, with HOP-62 NSCLC and in the test with SK-MEL-2 melanoma was greater than 100 µM throughout.
As to `Cc1cc(C)n(-c2nsc3ccccc23)n1`, the TGI in the test with SN12C renal, with DMS 273 small cell lung, in the test on HCC-2998 colon, with SF-539 CNS, with UACC-257 melanoma and in the test with OVCAR-8 ovarian was greater than 100 µM throughout. For the same compound, the TGI in the test with HCT-116 colon, in the test with HT29 colon, in the test with SF-268 CNS, in the test with HOP-62 NSCLC and in the test with SK-MEL-2 melanoma was greater than 100 µM in each case.
Take `Cc1ccc2c(c1)C(=O)N(N(C)C)CC(=O)N2`: the TGI in the test with DMS 273 small cell lung, in the test on HCC-2998 colon, in the test on SF-539 CNS, in the test with UACC-257 melanoma, in the test with OVCAR-8 ovarian and in the test on HCT-116 colon was greater than 100 µM in each case. For the same compound, the TGI with NCI-H226 lung, in the test with HT29 colon, with SF-268 CNS, with HOP-62 NSCLC and with SK-MEL-2 melanoma was greater than 100 µM throughout.
On to `CC(=O)c1ccc2c(c1)c1c(C)c3c[n+](C)ccc3c(C)c1n2C`, for which the TGI with SN12C renal is 4.9 µM; in the test on DMS 273 small cell lung it was 18.8 µM; in the test with HCC-2998 colon, greater than 100 µM; in the test on SF-539 CNS, 13.9 µM; with UACC-257 melanoma, 36.2 µM; in the test with OVCAR-8 ovarian it was 39.9 µM. For the same compound, the TGI in the test on HCT-116 colon was 18.8 µM; in the test with NCI-H226 lung it was 11.8 µM; in the test with HT29 colon, greater than 100 µM; in the test with SF-268 CNS it was 3.52 µM; in the test with HOP-62 NSCLC, 38.2 µM; in the test with SK-MEL-2 melanoma, 22.6 µM.
As for `CSc1nc(NC2OCC(O)C(O)C2O)c(N)c(=O)[nH]1` (stereo unspecified), the TGI in the test on SN12C renal, with DMS 273 small cell lung, in the test on HCC-2998 colon, in the test on SF-539 CNS, with UACC-257 melanoma and in the test on OVCAR-8 ovarian was greater than 100 µM each time. The TGI with HCT-116 colon, in the test on NCI-H226 lung, with HT29 colon, in the test on SF-268 CNS, with HOP-62 NSCLC and in the test with SK-MEL-2 melanoma was greater than 100 µM in each case.
Regarding `Fc1ccc(C2CC(c3cccc(Nc4ccncc4)c3)=NN2c2ccc(Cl)cc2)cc1` (stereo unspecified), the GI50 was 1.67 µM with SN12C renal; 1.55 µM in the test on HCC-2998 colon; 1.65 µM in the test on SF-539 CNS; 2 µM with UACC-257 melanoma; 1.73 µM with HCT-116 colon; 1.99 µM in the test on HT29 colon. The results for the GI50 with SF-268 CNS and with SK-MEL-2 melanoma were 1.75 µM and 1.89 µM, respectively. For the same compound, the TGI with SN12C renal is 3.16 µM; in the test on HCC-2998 colon it was 2.96 µM; with SF-539 CNS it was 3.07 µM; in the test with UACC-257 melanoma, 4.15 µM; with HCT-116 colon, 3.39 µM; in the test with HT29 colon, 4.44 µM. The results for the TGI in the test with SF-268 CNS and in the test with SK-MEL-2 melanoma were 3.45 µM and 3.73 µM, respectively.
For `N#CN=[N+]([O-])c1ccc(C(=O)O)cc1`, the TGI with HCC-2998 colon is greater than 100 µM; with SF-539 CNS it was 32.4 µM; in the test on UACC-257 melanoma, 32.7 µM; with OVCAR-8 ovarian, 37.1 µM; with NCI-H226 lung, 40.9 µM; in the test with HT29 colon, 46.3 µM. The values for the TGI in the test with SF-268 CNS, in the test with HOP-62 NSCLC and with SK-MEL-2 melanoma were 35.5 µM, 30.7 µM and 33.6 µM, respectively.
With `Brc1ccc(C2CC(c3cccc4ccccc34)=Nc3ccccc3S2)cc1` (stereo unspecified), the TGI in the test with SN12C renal, in the test with DMS 273 small cell lung, in the test with HCC-2998 colon, in the test on SF-539 CNS, in the test on UACC-257 melanoma and with OVCAR-8 ovarian was greater than 100 µM throughout. Besides, the TGI in the test with HCT-116 colon, in the test on NCI-H226 lung, with HT29 colon, with SF-268 CNS, in the test on HOP-62 NSCLC and with SK-MEL-2 melanoma was greater than 100 µM each time.
`Cc1cc2c(cc1C)OC(=O)CC2`: the TGI with SN12C renal, in the test with HCC-2998 colon, in the test with SF-539 CNS, in the test with UACC-257 melanoma, in the test with OVCAR-8 ovarian and in the test on HCT-116 colon was greater than 100 µM each time. Also, the TGI in the test with NCI-H226 lung, in the test with HT29 colon, in the test with SF-268 CNS, in the test with HOP-62 NSCLC and in the test on SK-MEL-2 melanoma was greater than 100 µM in each case.
